Results published in PubChem BioAssay AID2060884 (Molecular Pharmacology Branch, DTP, NCI, 2025).
Where “and” joins values, the source holds several entries; their conditions need not be identical. Equal entries are not always repeated.

Test system: NCI-H929 complex spheroids, viability % test/control
Assay: Anticancer human tumor NCI-H929 cell line growth inhibition [RAS];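 note: compound exposure lasted seven days before viability was read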
Conditions: for viability, T/C: stronger effect = lower value
From the text: RAS pathway inhibitors in Combinations in Complex Spheroids
A high-throughput screen of multi-cell type tumor spheroids was designed to identify active combinations of RAS pathway inhibitors and targeted small molecules. Complex spheroids include a stromal component modeled by human endothelial cells (HUVEC) and fibroblasts modeled by human mesenchymal stem cells (MSCs). The concentration ranges selected for each drug and investigational agent were based upon clinically achievable concentrations if the clinical Cmax of the agent was known.
Compounds. The drugs and investigational agents: abemaciclib (NSC768073), cobimetinib (NSC768068), divarasib (GDC6063, NSC841802), docetaxel (NSC628503), GDC-1971 (RLY-1971, NSC841576), gemcitabine (NSC613327), inavolisib (NSC800729), ipatasertib (NSC767898), KB-0742 (NSC834161), MRTX-1133 (NSC836407), osimertinib (NSC779217), RMC-4630 (NSC839698), RMC-6236 (NSC851965), RMC-6291 (NSC852671), Ro-3306 (NSC812927), sapanisertib (NSC764658), SN-38 (NSC673596), staurosporine (NSC755774), SY5609 (NSC837396), and tovorafenib (DAY101, NSC766906), were obtained from the National Cancer Institute (NCI) Developmental Therapeutics Program Chemical Repository. The FDA-approved anticancer drug set is available from the NCI Developmental Therapeutics Program. […] The stock solutions were prepared in dimethyl sulfoxide (DMSO, Sigma-Aldrich, St. Louis, MO, cat. D2650) at 800-fold the tested concentration and stored at -70 degrees C prior to their use. All drugs and investigational agents were tested over a range starting from a high concentration at or near the clinical Cmax and decreasing in half-log increments. If the clinical Cmax for an agent had not been determined, the highest concentration tested was 10 microM.
Cell Culture. All cells were maintained in an incubator at 37 degrees C and 5% CO2 with 95% humidity. The PDC lines were cultured according to standard operating procedures established by the NCI PDMR. All PDCs were thawed and cultured in Matrigel-coated flasks prepared with a working solution of 1X Ham's F-12 nutrient mix, without supplementation (Invitrogen, Waltham, MA, cat. 11765054), 100 U/mL penicillin-streptomycin (Invitrogen, cat. 15140122), and 2.5% Matrigel (Corning Inc., Corning, NY, cat. 354248) for the first three passages. The 362531-283-R-J2-PDC and 782815-120-R-J1-PDC lines were cultured in 6C/Colon 1B media, which includes advanced DMEM/F-12 (Thermo Fisher Scientific, cat. 12634028), 10 mM HEPES (Thermo Fisher Scientific, cat. 15630080), 1X GlutaMAX supplement (Thermo Fisher Scientific, cat. 35050061), 0.1 mg/mL primocin (InvivoGen, San Diego, CA, cat. ant-pm-2), 10% defined fetal bovine serum, heat inactivated (HyClone Laboratories Inc., Logan, UT, cat. SH30070.03HI), 50% L-WRN conditioned media (ATCC, cat. CRL-3276), 1.25 mM N-Acetyl-L-cysteine (Sigma-Aldrich, cat. A9165), 10 mM nicotinamide (Sigma-Aldrich, cat. N0636), 1X B-27 supplement (Thermo Fisher Scientific, cat. 17504044), 1X N-2 supplement (Thermo Fisher Scientific, cat. 17502048), 50 ng/mL human EGF (Thermo Fisher Scientific, cat. PHG0311), and 10 microM Y-27632 dihydrochloride (Tocris Bioscience, cat. 1254). The K12877-001-R-J1-PDC line was cultured in 6I media, which includes all 6C/Colon 1B media plus 10 ng/mL human FGF-10 (PeproTech, cat. 100-26), 1 ng/mL human FGF-2 (PeproTech, cat. 100-18B), 1 µM prostaglandin E2 (Tocris Bioscience, cat. 2296), […] hydrocortisone (Sigma-Aldrich, cat. H4001), and […] bovine insulin (Sigma-Aldrich, cat. I6634). The K86415-001-R-J1-PDC line was cultured in 6D media, which includes all 6C/Colon 1B media components minus the L-WRN conditioned media. The 485176-168-R4-J1-PDC was cultured in PANC media, which includes all 6C/Colon 1B media plus 100 ng/mL human FGF-10 (PeproTech, cat. 100-26), 500 nM SB-431542 (Selleckchem, cat. S1067), and 10 nM gastrin (Tocris Bioscience, cat. 3006). […]

SMILES: CC1(C)CCC(Nc2ncc(C(F)(F)F)c(-c3c[nH]c4c(P(C)(C)=O)c(C#N)ccc34)n2)CN1 (stereo not given) + CCn1c(-c2cccnc2C(C)OC)c2c3cc(ccc31)N1CCOC(CC(NC(=O)C(C(C)C)N(C)C(=O)C3(F)CCN(C(=O)C#CC(C)(C)N(C)C)CC3)C(=O)N3CCCC(N3)C(=O)OCC(C)(C)C2)C1
- IC50 (curve of first compound, second compound 0.000949 µM): 1.96 nM
- IC50 (curve of first compound, second compound 0.003 µM): 1.84 nM
- IC50 (curve of first compound, second compound 0.00949 µM): 1.83 nM
- IC50 (curve of first compound, second compound 0.03 µM): 1.79 nM
- IC50 (curve of first compound, second compound 0.0949 µM): 1.67 nM
- IC50 (curve of first compound, second compound 0.3 µM): 1.46 nM
- viability, T/C (second compound 0.000949 µM, first compound 0.000949 µM): 101%
- viability, T/C (second compound 0.000949 µM, first compound 0.003 µM): 20.1%
- viability, T/C (second compound 0.000949 µM, first compound 0.00949 µM): 4.36%
- viability, T/C (second compound 0.000949 µM, first compound 0.03 µM): 3.1%
- viability, T/C (second compound 0.000949 µM, first compound 0.0949 µM): 2.69%
- viability, T/C (second compound 0.000949 µM, first compound 0.3 µM): 2.22%
- viability, T/C (second compound 0.003 µM, first compound 0.000949 µM): 94.2%
- viability, T/C (second compound 0.003 µM, first compound 0.003 µM): 17.3%
- viability, T/C (second compound 0.003 µM, first compound 0.00949 µM): 4.24%
- viability, T/C (second compound 0.003 µM, first compound 0.03 µM): 3.6%
- viability, T/C (second compound 0.003 µM, first compound 0.0949 µM): 2.6%
- viability, T/C (second compound 0.003 µM, first compound 0.3 µM): 2.53%
- viability, T/C (second compound 0.00949 µM, first compound 0.000949 µM): 93.6%
- viability, T/C (second compound 0.00949 µM, first compound 0.003 µM): 17%
- viability, T/C (second compound 0.00949 µM, first compound 0.00949 µM): 4.24%
- viability, T/C (second compound 0.00949 µM, first compound 0.03 µM): 2.85%
- viability, T/C (second compound 0.00949 µM, first compound 0.0949 µM): 2.94%
- viability, T/C (second compound 0.00949 µM, first compound 0.3 µM): 2.08%
- viability, T/C (second compound 0.03 µM, first compound 0.000949 µM): 96.1%
- viability, T/C (second compound 0.03 µM, first compound 0.003 µM): 12.4%
- viability, T/C (second compound 0.03 µM, first compound 0.00949 µM): 3.38%
- viability, T/C (second compound 0.03 µM, first compound 0.03 µM): 2.65%
- viability, T/C (second compound 0.03 µM, first compound 0.0949 µM): 2.58%
- viability, T/C (second compound 0.03 µM, first compound 0.3 µM): 1.92%
- viability, T/C (second compound 0.0949 µM, first compound 0.000949 µM): 88.9%
- viability, T/C (second compound 0.0949 µM, first compound 0.003 µM): 9.6%
- viability, T/C (second compound 0.0949 µM, first compound 0.00949 µM): 2.64%
- viability, T/C (second compound 0.0949 µM, first compound 0.03 µM): 2.41%
- viability, T/C (second compound 0.0949 µM, first compound 0.0949 µM): 2.02%
- viability, T/C (second compound 0.0949 µM, first compound 0.3 µM): 1.77%
- viability, T/C (second compound 0.3 µM, first compound 0.000949 µM): 76.2%
- viability, T/C (second compound 0.3 µM, first compound 0.003 µM): 5.86%
- viability, T/C (second compound 0.3 µM, first compound 0.00949 µM): 2.85%
- viability, T/C (second compound 0.3 µM, first compound 0.03 µM): 2.43%
- viability, T/C (second compound 0.3 µM, first compound 0.0949 µM): 1.88%
- viability, T/C (second compound 0.3 µM, first compound 0.3 µM): 1.61%

SMILES: C[C@@H](NC(=O)c1ncnc(N)c1Cl)c1ncc(C(=O)Nc2cc(C(F)(F)F)c(Cl)cn2)s1
- viability, T/C (compound 0.0316 µM): 106% [middle of 4 runs]
- viability, T/C (compound 0.1 µM): 103% (2×) and 98.6% and 92.7%
- viability, T/C (compound 0.316 µM): 98.6% [middle of 4 runs]
- viability, T/C (compound 1 µM): 95.3% [middle of 4 runs]
- viability, T/C (compound 3.16 µM): 97.7% [middle of 4 runs]
- viability, T/C (compound 10 µM): 108% [middle of 4 runs]
- IC50 (curve of compound): > 10000 nM

SMILES: Nc1ccn(C2OC(CO)C(O)C2(F)F)c(=O)n1 (stereo not given)
- viability, T/C (compound 0.00316 µM): 106% [middle of 4 runs]
- viability, T/C (compound 0.0316 µM): 0.89% (2×) and 1.85% and 1.95%
- viability, T/C (compound 0.1 µM): 1.62% [middle of 4 runs]
- viability, T/C (compound 0.316 µM): 1.71% [middle of 4 runs]
- viability, T/C (compound 1 µM): 1.37% [middle of 4 runs]
- IC50 (curve of compound): 18.3 nM [middle of 4 runs]
